The subject of this test is L1210 leukemia ip in BDF1 mice, survival T/C. Kind of test: NCI In Vivo Anticancer Drug Screen. Data for tumor model L1210 Leukemia (intraperitoneal) in B6D2F1 (BDF1) mice. Particulars: endpoint: mean survival time, higher = longer survival. The gist of the method:
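In this screen, tumor-bearing mice given compound are compared to those given vehicle, and their survival values are reported as a treated-to-control quotient.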

[1] abbreviates: dose: 100.0 mg/kg/injection, schedule: Q04DX003 (ip), vehicle: saline.
[2] abbreviates: dose: 200.0 mg/kg/injection, schedule: Q04DX003 (ip), vehicle: saline.
Where [3] appears, read: dose: 400.0 mg/kg/injection, schedule: Q04DX003 (ip), vehicle: saline.
The mark [4] stands for this setting: dose: 100.0 mg/kg/injection, schedule: Q01DX009 (ip), vehicle: saline with Tween-80.
[5] abbreviates: dose: 200.0 mg/kg/injection, schedule: Q01DX009 (ip), vehicle: saline with Tween-80.
Setting [6] is: dose: 50.0 mg/kg/injection, schedule: Q01DX001 (ip), vehicle: carboxymethylcellulose (CMC).
Setting [7] is: dose: 100.0 mg/kg/injection, schedule: Q01DX001 (ip), vehicle: carboxymethylcellulose (CMC).
Where [8] appears, read: dose: 200.0 mg/kg/injection, schedule: Q01DX001 (ip), vehicle: carboxymethylcellulose (CMC).
The mark [9] stands for this setting: dose: 400.0 mg/kg/injection, schedule: Q01DX001 (ip), vehicle: carboxymethylcellulose (CMC).
[10] abbreviates: dose: 100.0 mg/kg/injection, schedule: Q04DX002 (ip), vehicle: Klucel (hydroxypropylcellulose) (HPC).
Where [11] appears, read: dose: 200.0 mg/kg/injection, schedule: Q04DX002 (ip), vehicle: Klucel (hydroxypropylcellulose) (HPC).
[12] abbreviates: dose: 400.0 mg/kg/injection, schedule: Q04DX002 (ip), vehicle: Klucel (hydroxypropylcellulose) (HPC).
[13] abbreviates: dose: 100.0 mg/kg/injection, schedule: Q01DX009 (ip), vehicle: Klucel (hydroxypropylcellulose) (HPC).
Setting [14] is: dose: 100.0 mg/kg/injection, schedule: Q04DX003 (ip), vehicle: Klucel (hydroxypropylcellulose) (HPC).
[15] abbreviates: dose: 200.0 mg/kg/injection, schedule: Q01DX009 (ip), vehicle: Klucel (hydroxypropylcellulose) (HPC).
[16] abbreviates: dose: 200.0 mg/kg/injection, schedule: Q04DX003 (ip), vehicle: Klucel (hydroxypropylcellulose) (HPC).
The mark [17] stands for this setting: dose: 400.0 mg/kg/injection, schedule: Q01DX009 (ip), vehicle: Klucel (hydroxypropylcellulose) (HPC).
Where [18] appears, read: dose: 400.0 mg/kg/injection, schedule: Q04DX003 (ip), vehicle: Klucel (hydroxypropylcellulose) (HPC).
Setting [19] is: dose: 100.0 mg/kg/injection, schedule: Q01DX001 (ip), vehicle: saline.
[20] abbreviates: dose: 400.0 mg/kg/injection, schedule: Q01DX001 (ip), vehicle: saline.
[21] abbreviates: dose: 200.0 mg/kg/injection, schedule: Q01DX001 (ip), vehicle: saline.

Values joined by “and” are separate entries in the source; they are usually repeats but may differ in a detail not shown here. Equal values may be shown once. Toxic doses and inconclusive results are not listed.

Consider `CN1CCC=C(CO)C1`, for which the T/C runs as follows: under setting [1], 97 % of control; under setting [2], 107 % of control; under setting [3], 103 % of control.
Consider `CCc1ccccc1NC(=O)Nc1cccc(O)c1`, for which the T/C reads like this: under setting [4], 100 % of control; under setting [5], 89 % of control; (dose: 400.0 mg/kg/injection, schedule: Q01DX009 (ip), vehicle: saline with Tween-80) 94 % of control.
Take `COC(=O)c1cc(C)cc(NS(=O)(=O)c2ccc(C)cc2)c1C`: the T/C is, setting by setting: under setting [6], 89 % of control; under setting [7], 86 % of control; under setting [8], 94 % of control; under setting [9], 89 % of control.
`Clc1ccc(CSSCc2ccc(Cl)cc2)cc1`: the T/C reads like this: under setting [10], 95 % of control; under setting [11], 110 % of control; under setting [12], 100 % of control.
With `CCOC(=O)c1ccc(NS(C)(=O)=O)cc1`, the T/C under setting [13] is 95 % of control; the T/C under setting [14] was 114 % of control; the T/C under setting [15] was 95 % of control; the T/C under setting [16] was 102 % of control; the T/C under setting [17] was 92 % of control; the T/C under setting [18] is 100 % of control.
In the case of `CCC(C(=O)c1ccc(F)cc1)C(O)(C(F)(F)F)C(F)(F)F` (configuration not stated), the T/C by setting is: (dose: 100.0 mg/kg/injection, schedule: Q04DX003 (ip), vehicle: saline with Tween-80) 104 % of control; (dose: 200.0 mg/kg/injection, schedule: Q04DX003 (ip), vehicle: saline with Tween-80) 103 % of control; (dose: 400.0 mg/kg/injection, schedule: Q04DX003 (ip), vehicle: saline with Tween-80) 101 % of control.
`O=C(O)C[P+](c1ccccc1)(c1ccccc1)c1ccccc1`: the T/C by setting is: (dose: 50.0 mg/kg/injection, schedule: Q01DX001 (ip), vehicle: saline) 106 % of control; under setting [19], 112 % of control.
In the case of `NC(CCC(=O)NC(CSCCC(=O)c1ccccc1)C(=O)NCC(=O)O)C(=O)O` (configuration not stated), the T/C is 96 % of control (dose: 25.0 mg/kg/injection, schedule: Q01DX009 (ip), vehicle: water); 91 % of control (dose: 50.0 mg/kg/injection, schedule: Q01DX009 (ip), vehicle: water); 94 % of control (dose: 100.0 mg/kg/injection, schedule: Q01DX009 (ip), vehicle: water); 92 % of control (dose: 200.0 mg/kg/injection, schedule: Q01DX009 (ip), vehicle: water); 97 % of control (dose: 400.0 mg/kg/injection, schedule: Q01DX009 (ip), vehicle: water).
Consider `CCCCCCCCCC(=O)N/N=C/c1ccccc1O`, for which the T/C is, setting by setting: under setting [13], 93 % of control; under setting [15], 101 % of control; under setting [17], 105 % of control.
As to `CCCCC(=O)N1C(=O)/C(=C\N(C)C)c2cc(C=O)ccc21`, the T/C is 90 % of control (dose: 100.0 mg/kg/injection, schedule: Q01DX001 (ip), vehicle: Klucel (hydroxypropylcellulose) (HPC)); 90 % of control (dose: 200.0 mg/kg/injection, schedule: Q01DX001 (ip), vehicle: Klucel (hydroxypropylcellulose) (HPC)); 93 % of control (dose: 400.0 mg/kg/injection, schedule: Q01DX001 (ip), vehicle: Klucel (hydroxypropylcellulose) (HPC)).
Consider `CCC[CH2][Sn]1([CH2]CCC)[O]C(=O)C2C(C=C(C)C)C=C(C)C(C)C2C(=O)[O]1` (configuration not stated), for which the T/C is, setting by setting: (dose: 5.0 mg/kg/injection, schedule: Q01DX001 (ip), vehicle: saline) 93 % of control; (dose: 10.0 mg/kg/injection, schedule: Q01DX001 (ip), vehicle: saline) 104 % of control; (dose: 20.0 mg/kg/injection, schedule: Q01DX001 (ip), vehicle: saline) 104 % of control; (dose: 40.0 mg/kg/injection, schedule: Q01DX001 (ip), vehicle: saline) 96 % of control; (dose: 80.0 mg/kg/injection, schedule: Q01DX001 (ip), vehicle: saline) 102 % of control; under setting [19], 117 % of control.
`Oc1cc(-c2cc(O)c(O)c(O)c2)cc(O)c1O`: the T/C was 104 % of control under setting [4] and 108 % of control under setting [5].
Consider `S=c1nc[nH]c2c1ncn2Cc1ccc(Cl)c(Cl)c1`, for which the T/C was 94 % of control under setting [11] and 108 % of control under setting [12].
`FC(F)(F)c1cc(CN(CCCl)CCCl)cc(C(F)(F)F)c1`: the T/C is, setting by setting: (dose: 2.4 mg/kg/injection, schedule: Q01DX009 (ip), vehicle: saline) 97 % of control; (dose: 3.6 mg/kg/injection, schedule: Q01DX009 (ip), vehicle: saline) 98 % of control; (dose: 8.2 mg/kg/injection, schedule: Q01DX009 (ip), vehicle: saline) 108 % of control; (dose: 42.0 mg/kg/injection, schedule: Q01DX009 (ip), vehicle: other) 97 % of control; (dose: 42.0 mg/kg/injection, schedule: Q01DX015 (ip), vehicle: carboxymethylcellulose (CMC)) 104 % of control; under setting [6], 111 % of control. Further, the T/C is 98 % of control (dose: 72.0 mg/kg/injection, schedule: Q01DX009 (ip), vehicle: other); 116 % of control (dose: 72.0 mg/kg/injection, schedule: Q01DX015 (ip), vehicle: carboxymethylcellulose (CMC)); 108 % of control under setting [7]; 116 % of control (dose: 120.0 mg/kg/injection, schedule: Q01DX015 (ip), vehicle: carboxymethylcellulose (CMC)); 100 % of control (dose: 176.0 mg/kg/injection, schedule: Q01DX001 (ip), vehicle: other); 103 % of control (dose: 178.0 mg/kg/injection, schedule: Q01DX001 (ip), vehicle: saline). In addition, the T/C reads like this: (dose: 178.0 mg/kg/injection, schedule: Q04DX003 (ip), vehicle: other) 86 % of control; under setting [8], 111 % of control; (dose: 264.0 mg/kg/injection, schedule: Q01DX001 (ip), vehicle: other) 107 % of control; (dose: 267.0 mg/kg/injection, schedule: Q01DX001 (ip), vehicle: saline) 116 % of control; (dose: 400.0 mg/kg/injection, schedule: Q01DX001 (ip), vehicle: other) 105 % of control; under setting [20], 121 % of control. The T/C (dose: 600.0 mg/kg/injection, schedule: Q01DX001 (ip), vehicle: saline) is 152 % of control.
In the case of `C=CCC(CC)(C(=O)O)C(=O)O`, the T/C reads like this: (dose: 100.0 mg/kg/injection, schedule: Q01DX009 (ip), vehicle: saline) 96 % of control; under setting [1], 102 % of control; (dose: 200.0 mg/kg/injection, schedule: Q01DX009 (ip), vehicle: saline) 93 % of control; under setting [2], 95 % of control; under setting [3], 86 % of control.
Consider `CCOC(=O)NC1CCc2ccccc21` (configuration not stated), for which the T/C under setting [19] was 98 % of control, the T/C under setting [21] is 104 % of control and the T/C under setting [20] was 93 % of control.
As to `O=c1nc(SCc2ccccc2)c(SCc2ccccc2)n[nH]1`, the T/C is, setting by setting: under setting [19], 95 % of control; under setting [21], 98 % of control; under setting [20], 91 % of control.
As for `Clc1ccc(C2(CBr)OCCO2)cc1`, the T/C was 98 % of control and 105 % of control under setting [13]; 95 % of control and 100 % of control under setting [10]; 101 % of control and 91 % of control under setting [15]; 97 % of control and 98 % of control under setting [11]; 97 % of control and 98 % of control under setting [17]; 98 % of control and 108 % of control under setting [12].
Take `Cn1c(N)c(N=Nc2ccc(S(=O)(=O)Nc3nccs3)cc2)c(=O)n(C)c1=O`: the T/C under setting [7] is 102 % of control, the T/C under setting [8] was 96 % of control and the T/C under setting [9] was 90 % of control.
On to `O=C(CCc1ccc(N(CCCl)CCCl)cc1)NC1CCCC1`, for which the T/C by setting is: under setting [14], 116 % of control; under setting [16], 115 % of control; under setting [18], 115 % of control.

For the origin of these results see PubChem BioAssay AID248 (DTP/NCI, 2004).
